The values that follow are results of earlier work, collected in patent US12220388B2, “Uses of curcuminoid compositions” (Givaudan France Naturals SAS, priority 2018, dated 2025).

The series relates to Caco-2 cells.

With `COc1cc(/C=C/C(=O)CC(=O)/C=C/c2ccc(O)c(OC)c2)ccc1O` [curcumin], the “predicted absorption in humans” value (from correlation of Caco-2 Papp with human absorption in vivo) is given as 0-20%. Moreover, where the note is “in vitro human intestinal cells model”, the “Papp (apparent permeability coefficient)” value is 1 nm/s.
